Assay [1] concerns the target T1, DNA polymerase catalytic subunit (Human cytomegalovirus (strain AD169) (HHV-5) (Human herpesvirus 5), UniProt P08546).
T1 sequence (P08546 whole entry): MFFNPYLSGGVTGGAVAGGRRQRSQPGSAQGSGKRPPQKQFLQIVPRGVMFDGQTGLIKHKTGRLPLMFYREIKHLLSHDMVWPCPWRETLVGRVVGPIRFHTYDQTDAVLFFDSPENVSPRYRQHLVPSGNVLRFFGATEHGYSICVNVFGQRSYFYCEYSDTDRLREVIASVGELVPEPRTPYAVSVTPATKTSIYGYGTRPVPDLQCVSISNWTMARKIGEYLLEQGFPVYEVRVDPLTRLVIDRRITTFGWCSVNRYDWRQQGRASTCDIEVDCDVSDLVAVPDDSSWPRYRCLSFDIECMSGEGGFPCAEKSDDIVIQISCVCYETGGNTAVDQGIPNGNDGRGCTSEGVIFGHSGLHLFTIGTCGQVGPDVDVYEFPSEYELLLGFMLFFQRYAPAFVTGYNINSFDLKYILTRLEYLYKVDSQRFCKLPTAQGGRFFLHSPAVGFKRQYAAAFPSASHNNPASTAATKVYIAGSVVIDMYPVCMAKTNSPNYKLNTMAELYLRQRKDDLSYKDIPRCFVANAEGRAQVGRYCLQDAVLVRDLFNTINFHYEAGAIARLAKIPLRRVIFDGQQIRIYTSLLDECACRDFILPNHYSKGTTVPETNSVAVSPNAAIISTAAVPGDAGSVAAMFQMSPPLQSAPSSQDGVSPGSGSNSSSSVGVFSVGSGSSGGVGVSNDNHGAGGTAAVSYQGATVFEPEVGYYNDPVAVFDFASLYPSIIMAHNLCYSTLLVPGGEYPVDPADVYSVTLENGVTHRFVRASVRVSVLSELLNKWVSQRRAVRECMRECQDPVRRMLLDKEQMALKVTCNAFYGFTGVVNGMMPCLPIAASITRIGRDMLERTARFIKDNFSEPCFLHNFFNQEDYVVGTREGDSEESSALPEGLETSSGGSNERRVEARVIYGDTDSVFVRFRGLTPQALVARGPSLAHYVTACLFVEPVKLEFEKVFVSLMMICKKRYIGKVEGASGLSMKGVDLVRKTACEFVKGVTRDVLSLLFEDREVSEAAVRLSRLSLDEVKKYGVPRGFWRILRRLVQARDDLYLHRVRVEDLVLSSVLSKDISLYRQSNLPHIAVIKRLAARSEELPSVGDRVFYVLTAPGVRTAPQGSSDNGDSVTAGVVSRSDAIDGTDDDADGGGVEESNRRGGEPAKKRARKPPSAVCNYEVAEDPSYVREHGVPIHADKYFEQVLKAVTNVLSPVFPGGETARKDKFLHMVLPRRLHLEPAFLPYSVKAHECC
Put plainly: Inhibition of human cytomegalovirus DNA polymerase (95 uL) activity in a solution containing […] HEPES (pH 7.5), incubation for 12 minutes at 26 degrees C. The arrangement: species or system Human betaherpesvirus 5.

Assay [2] deals with HFF. Put plainly: Antiviral activity against human cytomegalovirus (Davis strain) grown on human foreskin fibroblast cells determined by reduction in plaque formation upon incubation at 37 degrees C with the compound dissolved in DMSO. Type of assay: functional, cell-based.
The target in assay [3] is T2, DNA polymerase alpha catalytic subunit (Homo sapiens, UniProt P09884).
T2 sequence (P09884 whole entry): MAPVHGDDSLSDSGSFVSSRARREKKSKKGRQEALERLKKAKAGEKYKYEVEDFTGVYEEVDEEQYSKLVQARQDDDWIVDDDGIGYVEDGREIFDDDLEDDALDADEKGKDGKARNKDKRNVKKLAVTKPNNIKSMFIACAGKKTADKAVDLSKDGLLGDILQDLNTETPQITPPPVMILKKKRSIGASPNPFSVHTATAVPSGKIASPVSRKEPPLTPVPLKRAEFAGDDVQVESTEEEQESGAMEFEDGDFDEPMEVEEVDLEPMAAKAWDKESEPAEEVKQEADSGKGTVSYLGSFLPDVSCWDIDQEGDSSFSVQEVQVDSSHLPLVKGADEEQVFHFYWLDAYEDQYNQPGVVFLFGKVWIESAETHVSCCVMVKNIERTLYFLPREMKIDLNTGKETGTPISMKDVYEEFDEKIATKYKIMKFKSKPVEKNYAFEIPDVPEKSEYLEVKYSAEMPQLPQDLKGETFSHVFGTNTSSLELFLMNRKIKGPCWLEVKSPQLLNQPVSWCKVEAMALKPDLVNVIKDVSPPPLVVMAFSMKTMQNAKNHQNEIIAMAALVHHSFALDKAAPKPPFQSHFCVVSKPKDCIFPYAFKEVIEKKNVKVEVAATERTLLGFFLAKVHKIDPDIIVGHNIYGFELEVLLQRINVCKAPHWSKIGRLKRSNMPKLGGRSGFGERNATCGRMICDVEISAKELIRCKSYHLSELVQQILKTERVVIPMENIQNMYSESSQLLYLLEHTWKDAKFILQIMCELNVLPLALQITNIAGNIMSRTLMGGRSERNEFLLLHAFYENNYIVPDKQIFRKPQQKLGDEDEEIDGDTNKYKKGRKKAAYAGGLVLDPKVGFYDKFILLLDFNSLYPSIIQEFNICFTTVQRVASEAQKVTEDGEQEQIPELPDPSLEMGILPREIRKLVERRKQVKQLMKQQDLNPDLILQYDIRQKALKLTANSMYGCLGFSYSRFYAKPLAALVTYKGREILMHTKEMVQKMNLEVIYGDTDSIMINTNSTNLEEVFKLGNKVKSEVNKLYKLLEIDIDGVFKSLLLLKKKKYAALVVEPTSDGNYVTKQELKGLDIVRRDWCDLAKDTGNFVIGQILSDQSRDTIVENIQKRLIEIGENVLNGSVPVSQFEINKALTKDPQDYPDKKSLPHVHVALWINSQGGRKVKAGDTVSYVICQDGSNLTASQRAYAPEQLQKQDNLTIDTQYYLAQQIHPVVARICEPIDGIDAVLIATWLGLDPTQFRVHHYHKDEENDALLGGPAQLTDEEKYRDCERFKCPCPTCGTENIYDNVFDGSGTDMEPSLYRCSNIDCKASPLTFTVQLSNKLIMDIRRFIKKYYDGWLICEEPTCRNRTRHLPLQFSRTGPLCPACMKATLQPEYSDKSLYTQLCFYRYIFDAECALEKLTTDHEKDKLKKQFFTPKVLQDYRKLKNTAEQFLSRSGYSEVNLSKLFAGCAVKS
The assay can be described thus: Inhibition of human alpha DNA polymerase (95 uL) activity in a solution containg […] HEPES (pH 7.5) upon incubation for 12 minutes at 26 degrees C with the compound dissolved in DMSO.

Assay [4] deals with T3, DNA polymerase delta catalytic subunit (Homo sapiens, UniProt P28340).
T3 sequence (P28340 whole entry): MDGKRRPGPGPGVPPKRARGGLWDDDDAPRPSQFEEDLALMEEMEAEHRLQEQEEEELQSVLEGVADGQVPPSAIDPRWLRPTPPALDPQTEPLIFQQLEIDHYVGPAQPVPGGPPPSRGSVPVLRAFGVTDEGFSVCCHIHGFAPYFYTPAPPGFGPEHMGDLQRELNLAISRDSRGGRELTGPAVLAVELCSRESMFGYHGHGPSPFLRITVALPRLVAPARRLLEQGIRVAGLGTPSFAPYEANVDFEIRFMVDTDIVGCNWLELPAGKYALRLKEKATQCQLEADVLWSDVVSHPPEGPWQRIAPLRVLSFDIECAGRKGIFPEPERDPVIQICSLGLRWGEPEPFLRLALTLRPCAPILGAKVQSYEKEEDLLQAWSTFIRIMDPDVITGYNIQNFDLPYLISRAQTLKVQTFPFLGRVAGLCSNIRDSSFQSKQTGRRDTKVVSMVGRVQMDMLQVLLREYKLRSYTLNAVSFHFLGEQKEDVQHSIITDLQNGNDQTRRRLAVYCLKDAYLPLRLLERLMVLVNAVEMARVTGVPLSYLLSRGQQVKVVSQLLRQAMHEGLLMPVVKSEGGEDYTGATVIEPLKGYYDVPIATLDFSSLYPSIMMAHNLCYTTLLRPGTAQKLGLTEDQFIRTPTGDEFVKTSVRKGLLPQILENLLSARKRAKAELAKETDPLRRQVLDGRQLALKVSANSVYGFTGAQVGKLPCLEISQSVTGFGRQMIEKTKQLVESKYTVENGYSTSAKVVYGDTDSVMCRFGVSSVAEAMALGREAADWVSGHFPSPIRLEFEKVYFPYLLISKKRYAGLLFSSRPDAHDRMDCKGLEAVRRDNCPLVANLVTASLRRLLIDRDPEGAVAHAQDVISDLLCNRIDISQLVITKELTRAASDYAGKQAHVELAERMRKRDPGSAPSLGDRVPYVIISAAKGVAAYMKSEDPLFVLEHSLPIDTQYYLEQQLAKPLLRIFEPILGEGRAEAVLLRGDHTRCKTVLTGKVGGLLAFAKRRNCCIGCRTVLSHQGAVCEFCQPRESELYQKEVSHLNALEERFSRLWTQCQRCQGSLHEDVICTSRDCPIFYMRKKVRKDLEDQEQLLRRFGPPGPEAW
Put plainly: Inhibition of human delta DNA polymerase (95 uL) activity in a solution containg […] HEPES (pH 7.5) upon incubation for 12 minutes at 26 degrees C with the compound dissolved in DMSO.

pIC50: −log10 of the molar value.

What is called pIC50 is the IC50 on a negative log10 scale, so that one unit is a factor of ten.

As to `Cn1cc(C(=O)NCc2ccc(Cl)cc2)c(=O)c2cc(CCO)sc21`, in assay [1], the pIC50 is 5.40.
Still for that read-out and setting: the value for `Cn1cc(C(=O)NCc2ccc(Cl)cc2)c(=O)c2cc(C#CCCCO)sc21` was 4.66.
Consider `O=C(NCc1ccc(Cl)cc1)c1cn(CCO)c2sc(CCCO)cc2c1=O`, for which the pIC50 was 5.74 in assay [2] and 6.12 in assay [1].
On to `O=C(NCc1ccc(Cl)cc1)c1cnc2sc(C#CCO)cc2c1O`, for which the results for the pIC50 in assay [2] and in assay [1] were below 4.70 and 5.57, respectively.
The compound `CCn1cc(C(=O)NCc2ccc(Cl)cc2)c(=O)c2cc(CCCO)sc21` showed a pIC50 in assay [2] of 5.64.
The same measure, in the same setting: then `Cn1cc(C(=O)NCc2ccc(Cl)cc2)c(=O)c2cc(C#CCO)sc21`, with 5.85.
Regarding `O=C(O)P(=O)(O)O` [FOSCARNET], the pIC50 in assay [3] and in assay [4] was below 4.70 throughout.
Regarding `Cc1cn([C@H]2C[C@H](N=[N+]=[N-])[C@@H](CO[P@](=O)(O)O[P@](=O)(O)OP(=O)(O)O)O2)c(=O)[nH]c1=O` [ZIDOVUDINE TRIPHOSPHATE], in assay [3], the pIC50 is 4.87.
Consider `O=C(NCc1ccc(Cl)cc1)c1cn(CCO)c2sc(C#CCO)cc2c1=O`, for which the pIC50 was 5.64 in assay [2] and 5.96 in assay [1].
In assay [1], `Cn1cc(C(=O)NCc2ccc(Cl)cc2)c(=O)c2cc(CCCCCO)sc21` had a pIC50 of 5.01.
Regarding `CC(C)n1cc(C(=O)NCc2ccc(Cl)cc2)c(=O)c2cc(CCCO)sc21`, the pIC50 in assay [2] was 5.89.
The compound `C[C@@]1(CO)[C@H](O)CC[C@@]2(C)[C@H]1CC[C@H]1C[C@@H]3C[C@@]12CC[C@]3(O)CO` [APHIDICOLIN] gave a pIC50 in assay [4] below 4.40.
As for `Cn1cc(C(=O)NCc2ccc(Cl)cc2)c(=O)c2cc(CCCCO)sc21`, in assay [1], the pIC50 was 6.37.
As for `CC(C)n1cc(C(=O)NCc2ccc(Cl)cc2)c(=O)c2cc(C#CCO)sc21`, in assay [2], the pIC50 is 5.57.
`CCn1cc(C(=O)NCc2ccc(Cl)cc2)c(=O)c2cc(C#CCO)sc21` gave a pIC50 in assay [2] of 5.77.
As to `O=C(NCc1ccc(Cl)cc1)c1cnc2sc(CCCO)cc2c1O`, the pIC50 in assay [2] is below 4.70.
As for `CCN(CC)CCn1cc(C(=O)NCc2ccc(Cl)cc2)c(=O)c2cc(CCCO)sc21`, the negative logarithm of the IC50 (pIC50) in assay [2] was 6.05.
Regarding `CCN(CC)CCn1cc(C(=O)NCc2ccc(Cl)cc2)c(=O)c2cc(C#CCO)sc21`, the pIC50 is 5.42 in assay [2] and 5.74 in assay [1].
With `Cn1cc(C(=O)NCc2ccc(Cl)cc2)c(=O)c2cc(C#CCCO)sc21`, the pIC50 in assay [1] was 5.02.

These data come from ChEMBL document CHEMBL1141075, “4-Oxo-4,7-dihydrothieno[2,3-b]pyridines as non-nucleoside inhibitors of human cytomegalovirus and related herpesvirus polymerases” (J Med Chem, 2005).
